In US11052091B2, “BRK inhibitory compound” (ONO PHARMACEUTICAL CO., LTD., priority 2016, dated 2021) one finds IC50 and inhibition data, which are given here for two compounds.

In assay [1] the target is Brk enzyme (Homo sapiens (Human), UniProt Q13882). In words: Measurement of Brk inhibitory activity (LanthaScreen TR-FRET). As to conditions: read-out: Brk inhibitory activity (IC50). (Time-resolved FRET reads energy transfer from a long-lived donor to a nearby acceptor.)
Description: Measurement of an inhibitory activity on Brk enzyme was performed by using LanthaScreen (registered trademark) system (Invitrogen) in accordance with the attached manual. Reagents used are described below.
Reaction Buffer: A solution containing 50 mmol/L HEPES (pH 7.5), 0.01% Brij 35, 10 mmol/L MgCl2 and 1 mmol/L EGTA was prepared by using purified water.
A solution of a test substance (the compound of the present invention): A solution of each concentration of a test compound in DMSO was diluted 20-fold with Reaction Buffer, and a solution containing a test compound at a concentration 5 times a final concentration was prepared. An enzyme solution: A solution containing 480 ng/mL of Brk enzyme was prepared by using Reaction Buffer. […] A detection solution: A solution containing 20 mmol/L of EDTA and 4 nmol/L of PY20 (Invitrogen) was prepared by using Dilution B (Invitrogen).
To a 96-well plate (Nunc), a solution of 10 mmol/L of a test compound in DMSO was dispensed, and further, a dilution series at a common ratio of three was prepared by using DMSO. […] The phosphorylation of the artificial substrate was quantified by Time-Resolved Fluorescence Resonance Energy Transfer (TR-FRET). […]
Assay [2] concerns the target p38α (Homo sapiens (Human), UniProt Q16539). In words: Enzyme inhibitory activity on kinases other than Brk (selectivity), p38α. The format is biochemical. The settings on record: compound concentration of 1 μmol/L; read-out: inhibition rates (%) p38α. On the procedure:
The compound of the present invention was dissolved in DMSO to prepare a solution with a concentration of 100 times the test concentration of 1 μmol/L. The solution was further diluted 25-fold with Assay Buffer (20 mmol/L HEPES, 0.01% Triton X-100, 2 mmol/L DTT, pH 7.5) to give a test substance solution. With regard to a positive control substance, a solution of the positive control substance was prepared in a similar manner.
Five microliters of a test substance solution with a concentration of four times prepared by using Assay Buffer, 5 μL of a solution of a substrate/ATP/a metal (Mg) with a concentration of four times and 10 μL of a solution of kinase with a concentration of two times were mixed in a well of a 384-well plate made of polypropylene, and the mixture was subjected to a reaction at room temperature for 1 hour. To the mixture, 60 μL of Termination Buffer (QuickScout Screening Assist MSA; Cama Biosciences, Inc.) was added to stop the reaction. The substrate peptide and the phosphorylated peptide in the reaction solution were separated, and were quantified. The kinase reaction was evaluated by a product ratio (P/(P+S)) calculated from a peak height (S) of the substrate peptide and a peak height (P) of the phosphorylated peptide. As other kinases, kinase selectivity experiments were performed using, for example, the p38α and Syk kinases. […]

Some results are limits rather than exact numbers.

Chain of p38α (Q16539 whole entry): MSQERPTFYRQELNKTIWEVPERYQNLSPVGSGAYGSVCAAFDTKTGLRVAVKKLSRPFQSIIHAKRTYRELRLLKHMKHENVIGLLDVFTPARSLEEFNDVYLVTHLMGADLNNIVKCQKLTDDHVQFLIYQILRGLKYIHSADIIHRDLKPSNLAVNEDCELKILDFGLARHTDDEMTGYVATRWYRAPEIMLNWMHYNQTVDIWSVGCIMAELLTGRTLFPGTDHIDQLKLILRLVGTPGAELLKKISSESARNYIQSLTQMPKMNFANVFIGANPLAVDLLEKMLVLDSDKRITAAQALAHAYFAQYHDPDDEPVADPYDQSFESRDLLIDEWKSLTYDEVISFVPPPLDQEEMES
Chain of Brk enzyme (Q13882 whole entry): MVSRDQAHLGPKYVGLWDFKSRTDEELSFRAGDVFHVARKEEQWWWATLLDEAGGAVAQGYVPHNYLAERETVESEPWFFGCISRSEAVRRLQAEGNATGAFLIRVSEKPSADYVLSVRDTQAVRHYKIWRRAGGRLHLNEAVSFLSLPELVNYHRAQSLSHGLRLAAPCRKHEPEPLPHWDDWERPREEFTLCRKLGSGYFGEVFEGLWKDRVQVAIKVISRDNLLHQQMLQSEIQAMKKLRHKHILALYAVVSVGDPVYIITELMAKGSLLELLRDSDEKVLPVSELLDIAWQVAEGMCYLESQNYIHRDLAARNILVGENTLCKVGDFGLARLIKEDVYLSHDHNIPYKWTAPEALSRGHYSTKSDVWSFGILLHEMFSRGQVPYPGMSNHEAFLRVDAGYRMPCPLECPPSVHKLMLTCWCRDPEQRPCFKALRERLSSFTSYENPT

What is called IC50 is the point on the concentration scale where inhibition reaches its midpoint. For “6-amino-2-{[2-difluoro-4-(methylsulfonyl)phenyl]amino}-7-(7-fluoro-1H-indazol-4-yl)-9-isopropyl-7,9-dihydro-8H-purin-8-one [Example 5-11]”, the IC50 in assay [1] stood at 22 nM.

A word on the inhibition: it is the share of the control response that was lost under treatment. For the compound `CC(C)n1c(=O)n(-c2ccc(F)c3[nH]ncc23)c2c(N)nc(Nc3ccc(S(C)(=O)=O)cc3F)nc21` [Example 3, 6-amino-7-(7-fluoro-1H-indazol-4-yl)-2-{[2-fluoro-4-(methylsulfonyl)phenyl]amino}-9-isopropyl-7,9-dihydro-8H-purin-8-one], in assay [2], the inhibition at 1 µM was at most 24%.
